# ChEMBL document CHEMBL1201862, “PubChem BioAssay data set” (2004)
#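 Growth conditions: 96-well plates. Treatment: test compound, 48 hours, 5 concentrations. Analysis: linear interpolation between bracketing concentrations; unreached endpoints set to highest concentration. GI50 is the concentration that inhibits growth by half.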 Active and inactive are the calls of the source. Rule as the data show it: active = GI50 up to about 1.1 µM and inactive = higher.
# Key:
# Test in all cases: NCI-60 cell line screen, 48 h
# SNB-19 = system: SNB-19
# HL-60 = system: HL-60
# 786-0 = system: 786-0
# CCRF-CEM = system: CCRF-CEM
# NCI-H460 = system: NCI-H460
# MDA-MB-435 = system: MDA-MB-435
# SF-268 = system: SF-268
# SK-MEL-28 = system: SK-MEL-28
# K562 = system: K562
# BT-549 = system: BT-549
# MCF7 = system: MCF7
# NCI/ADR-RES = system: NCI/ADR-RES
# UACC-62 = system: UACC-62
# SF-539 = system: SF-539
# SW-620 = system: SW-620
# HOP-62 = system: HOP-62
# TK-10 = system: TK-10
# HCC 2998 = system: HCC 2998
# NCI-H226 = system: NCI-H226
# OVCAR-5 = system: OVCAR-5
# CAKI-1 = system: CAKI-1
# KM12 = system: KM12
# SR = system: SR
# IGROV-1 = system: IGROV-1
# HOP-92 = system: HOP-92
# SN12C = system: SN12C
# ACHN = system: ACHN
# HT-29 = system: HT-29
# SNB-75 = system: SNB-75
# NCI-H522 = system: NCI-H522
# M14 = system: M14
# HCT-116 = system: HCT-116
# HCT-15 = system: HCT-15
# OVCAR-3 = system: OVCAR-3
# OVCAR-8 = system: OVCAR-8
# SF-295 = system: SF-295
# EKVX = system: EKVX
# UACC-257 = system: UACC-257
# MDA-MB-231 = system: MDA-MB-231
# OVCAR-4 = system: OVCAR-4
# PC-3 = system: PC-3
# SK-MEL-2 = system: SK-MEL-2
# RPMI-8226 = system: RPMI-8226
# A549 = system: A549
# MOLT-4 = system: MOLT-4
# UO-31 = system: UO-31
# SK-MEL-5 = system: SK-MEL-5
# COLO 205 = system: COLO 205
# SK-OV-3 = system: SK-OV-3
# DU-145 = system: DU-145
# U-251 = system: U-251
# NCI-H23 = system: NCI-H23
# A498 = system: A498
# LOX IMVI = system: LOX IMVI
# Malme-3M = system: Malme-3M
# MDA-N = system: MDA-N
structure (smiles),measurement,setting,value
O=C(Nc1ccc(S(=O)(=O)Nc2ncccn2)cc1)c1c2ccccc2nc2ccccc12,GI50,SNB-19,> 100 µM (inactive)
same,GI50,HL-60,< 0.01 µM (active)
same,GI50,786-0,> 100 µM (inactive)
same,GI50,CCRF-CEM,> 10 µM (inactive)
same,GI50,NCI-H460,> 100 µM (inactive)
same,GI50,MDA-MB-435,> 100 µM (inactive)
same,GI50,SF-268,> 100 µM (inactive)
same,GI50,SK-MEL-28,> 100 µM (inactive)
same,GI50,K562,> 100 µM (inactive)
same,GI50,BT-549,> 100 µM (inactive)
same,GI50,MCF7,> 100 µM (inactive)
same,GI50,NCI/ADR-RES,> 100 µM (inactive)
same,GI50,UACC-62,> 100 µM (inactive)
same,GI50,SF-539,> 100 µM (inactive)
same,GI50,SW-620,> 100 µM (inactive)
same,GI50,HOP-62,> 100 µM (inactive)
same,GI50,TK-10,> 100 µM (inactive)
same,GI50,HCC 2998,> 100 µM (inactive)
same,GI50,NCI-H226,< 0.01 µM (active)
same,GI50,OVCAR-5,> 100 µM (inactive)
same,GI50,CAKI-1,> 100 µM (inactive)
same,GI50,KM12,> 100 µM (inactive)
same,GI50,SR,55.7 µM (inactive)
same,GI50,IGROV-1,> 100 µM (inactive)
same,GI50,HOP-92,> 100 µM (inactive)
same,GI50,SN12C,> 100 µM (inactive)
same,GI50,ACHN,> 100 µM (inactive)
same,GI50,HT-29,> 100 µM (inactive)
same,GI50,SNB-75,> 100 µM (inactive)
same,GI50,NCI-H522,> 100 µM (inactive)
same,GI50,M14,> 100 µM (inactive)
same,GI50,HCT-116,> 100 µM (inactive)
same,GI50,HCT-15,> 100 µM
same,GI50,OVCAR-3,> 100 µM (inactive)
same,GI50,OVCAR-8,> 100 µM (inactive)
same,GI50,SF-295,> 100 µM (inactive)
same,GI50,EKVX,> 100 µM (inactive)
same,GI50,UACC-257,> 100 µM (inactive)
same,GI50,MDA-MB-231,> 100 µM (inactive)
same,GI50,OVCAR-4,> 100 µM (inactive)
same,GI50,PC-3,> 100 µM (inactive)
same,GI50,SK-MEL-2,> 100 µM (inactive)
same,GI50,RPMI-8226,> 100 µM (inactive)
same,GI50,A549,> 100 µM (inactive)
same,GI50,MOLT-4,> 100 µM (inactive)
same,GI50,UO-31,> 100 µM (inactive)
same,GI50,SK-MEL-5,> 100 µM (inactive)
same,GI50,COLO 205,> 100 µM (inactive)
same,GI50,SK-OV-3,> 100 µM (inactive)
same,GI50,DU-145,> 100 µM (inactive)
same,GI50,U-251,> 100 µM (inactive)
same,GI50,NCI-H23,> 100 µM (inactive)
same,GI50,A498,> 100 µM (inactive)
same,GI50,LOX IMVI,> 100 µM (inactive)
same,GI50,Malme-3M,> 100 µM (inactive)
same,GI50,MDA-N,> 100 µM (inactive)
